One compound from ChEMBL document CHEMBL3882388, “Pharmaceutical Compositions Comprising Beta-Lactam Antibiotic, Sulbactam and Beta-Lactamase Inhibitor” (2014) can be followed below.

Each structure is given as a SMILES string.

The target of test [1] is Beta-lactamase (Acinetobacter baumannii) (UniProt Q8RLA6). Briefly: Inhibition of beta-lactamase in extended-spectrum b-lactamase producing Acinetobacter baumannii S-4 assessed as potentiation of cefepime-induced antibacterial activity by measuring cefepime MIC at 4 to 8 ug/ml incubated for 16 to 20 hrs by CLSI method.
Sequence of Beta-lactamase (Acinetobacter baumannii) (Q8RLA6 as listed by the source): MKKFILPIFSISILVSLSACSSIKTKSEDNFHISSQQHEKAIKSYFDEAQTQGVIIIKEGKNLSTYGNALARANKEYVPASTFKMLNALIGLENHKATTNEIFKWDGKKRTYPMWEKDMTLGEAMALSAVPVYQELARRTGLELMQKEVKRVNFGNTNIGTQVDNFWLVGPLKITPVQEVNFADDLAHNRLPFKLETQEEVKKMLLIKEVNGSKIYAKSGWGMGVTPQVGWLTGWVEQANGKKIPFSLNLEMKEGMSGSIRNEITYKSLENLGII
The target is the same in test [2]. In words: Inhibition of beta-lactamase in extended-spectrum b-lactamase producing Acinetobacter baumannii S-8 assessed as potentiation of cefepime-induced antibacterial activity by measuring cefepime MIC at 4 to 8 ug/ml incubated for 16 to 20 hrs by CLSI method.
Test [3] shares this target. Briefly: Inhibition of beta-lactamase in extended-spectrum b-lactamase producing Acinetobacter baumannii S-15 assessed as potentiation of cefpirome-induced antibacterial activity by measuring cefpirome MIC at 4 to 8 ug/ml incubated for 16 to 20 hrs by CLSI method.
The target is the same in test [4]. Briefly: Inhibition of beta-lactamase in extended-spectrum b-lactamase producing Acinetobacter baumannii S-10 assessed as potentiation of cefpirome-induced antibacterial activity by measuring cefpirome MIC at 4 to 8 ug/ml incubated for 16 to 20 hrs by CLSI method.
Test [5] shares this target. In words: Inhibition of beta-lactamase in extended-spectrum b-lactamase producing Acinetobacter baumannii NCTC 13304 assessed as potentiation of cefpirome-induced antibacterial activity by measuring cefpirome MIC at 4 to 8 ug/ml incubated for 16 to 20 hrs by CLSI method.
For test [6] the target is unchanged. In words: Inhibition of beta-lactamase in extended-spectrum b-lactamase producing Acinetobacter baumannii NCTC 13305 assessed as potentiation of cefepime-induced antibacterial activity by measuring cefepime MIC at 4 to 8 ug/ml incubated for 16 to 20 hrs by CLSI method.
The target is the same in test [7]. In words: Inhibition of beta-lactamase in extended-spectrum b-lactamase producing Acinetobacter baumannii S-4 assessed as potentiation of cefpirome-induced antibacterial activity by measuring cefpirome MIC at 4 to 8 ug/ml incubated for 16 to 20 hrs by CLSI method.
Test [8] shares this target. In words: Inhibition of beta-lactamase in extended-spectrum b-lactamase producing Acinetobacter baumannii NCTC 13301 assessed as potentiation of cefpirome-induced antibacterial activity by measuring cefpirome MIC at 4 to 8 ug/ml incubated for 16 to 20 hrs by CLSI method.
The target is the same in test [9]. In words: Inhibition of beta-lactamase in extended-spectrum b-lactamase producing Acinetobacter baumannii S-3 assessed as potentiation of cefepime-induced antibacterial activity by measuring cefepime MIC at 4 to 8 ug/ml incubated for 16 to 20 hrs by CLSI method.
The target is the same in test [10]. Briefly: Inhibition of beta-lactamase in extended-spectrum b-lactamase producing Acinetobacter baumannii S-10 assessed as potentiation of cefepime-induced antibacterial activity by measuring cefepime MIC at 4 to 8 ug/ml incubated for 16 to 20 hrs by CLSI method.
Test [11] has the same target. Briefly: Inhibition of beta-lactamase in extended-spectrum b-lactamase producing Acinetobacter baumannii NCTC 13305 assessed as potentiation of cefpirome-induced antibacterial activity by measuring cefpirome MIC at 4 to 8 ug/ml incubated for 16 to 20 hrs by CLSI method.
Test [12] shares this target. In words: Inhibition of beta-lactamase in extended-spectrum b-lactamase producing Acinetobacter baumannii S-15 assessed as potentiation of cefepime-induced antibacterial activity by measuring cefepime MIC at 4 to 8 ug/ml incubated for 16 to 20 hrs by CLSI method.
The target is the same in test [13]. In words: Inhibition of beta-lactamase in extended-spectrum b-lactamase producing Acinetobacter baumannii NCTC 13304 assessed as potentiation of cefepime-induced antibacterial activity by measuring cefepime MIC at 4 to 8 ug/ml incubated for 16 to 20 hrs by CLSI method.
The target is the same in test [14]. In words: Inhibition of beta-lactamase in extended-spectrum b-lactamase producing Acinetobacter baumannii S-3 assessed as potentiation of cefpirome-induced antibacterial activity by measuring cefpirome MIC at 4 to 8 ug/ml incubated for 16 to 20 hrs by CLSI method.
The target is the same in test [15]. In words: Inhibition of beta-lactamase in extended-spectrum b-lactamase producing Acinetobacter baumannii S-8 assessed as potentiation of cefpirome-induced antibacterial activity by measuring cefpirome MIC at 4 to 8 ug/ml incubated for 16 to 20 hrs by CLSI method.
Test [16] has the same target. Briefly: Inhibition of beta-lactamase in extended-spectrum b-lactamase producing Acinetobacter baumannii NCTC 13301 assessed as potentiation of cefepime-induced antibacterial activity by measuring cefepime MIC at 4 to 8 ug/ml incubated for 16 to 20 hrs by CLSI method.

As to `CC1(C)[C@H](C(=O)O)N2C(=O)C[C@H]2S1(=O)=O`, the MIC is over 32 µg/mL in test [1]; 32 µg/mL in [2]; 32 µg/mL in test [3]; over 32 µg/mL in test [4]; 32 µg/mL in test [5]; 4 µg/mL in test [6]. Besides, the MIC in test [7] is over 32 µg/mL; in test [8], over 32 µg/mL; in [9] it was over 32 µg/mL; in [10], over 32 µg/mL; in test [11], 8 µg/mL; in test [12], over 32 µg/mL. Also, the MIC in [13] is over 32 µg/mL; in [14], over 32 µg/mL; in test [15] it was 32 µg/mL; in [16] it was over 32 µg/mL.
